Laboratory results taken from patent publication US12391674B2, “Heterocyclic compounds for the treatment of epilepsy” (OTSUKA PHARMACEUTICAL CO., LTD., priority 2018, dated 2025).

Tested on: DBA/2 mice
Assay: Audiogenic seizure model
Assay type: in vivo
Conditions: Mus musculus, DBA/2 mice, oral, auditory stimulation 1 hour after administration, read-out: Seizure suppression
Procedure: The animal model used in this test is a phenotype model for partial seizure (including secondary generalized seizure) and generalized tonic-clonic seizure, and has high clinical predictability. This test was performed in accordance with the report of De Sarro et al (Br J Pharmacol. 1988 February; 93 (2): 247-56. Anticonvulsant effects of some calcium entry blockers in DBA/2 mice. De Sarro G B, Meldrum B S, Nistico G.).
In this test example, the example compounds shown in Tables 3-1 to 3-3 below were used as test compounds.
The test compounds were suspended in 5% gum arabic/distilled water (w/v), and administered by forced oral administration to male and female DBA/2 mice (Japan SLC, Inc., 3 weeks old, 8 per group) at a dose of 30 mg/kg. After one hour of the oral administration of the test compound, each mouse was placed in a transparent acrylic cylinder 30 cm high and 23 cm in diameter, and 30 seconds were allowed for habituation. Then, they were exposed to auditory stimulation (12.6 kHz, 100-110 dB) for 1 minute or until a tonic seizure occurred.
The seizure response was assessed using the following scale, 0: no seizure, 1: wild running, 2: clonic seizure, 3: tonic seizure and 4: respiratory arrest. The maximum response was recorded as the seizure severity score.
The seizure suppression rate for each compound administration group was calculated according to the following formula.
Here, a rate of seizure suppression of 90% or more was expressed as “A”, a rate of seizure suppression of 70% or more and less than 90% was expressed as “B”, and a rate of seizure suppression of 50% or more and less than 70% was expressed as “C”.

Row | Structure (SMILES) | inhibition in vivo at 30 mg/kg [%] | inhibition in vivo at 5 mg/kg (dose 5 mg/kg) [%]
1 | COCc1cn2cc(-c3cnc(Oc4ccccc4)nc3)ccc2n1 [Example 208] | > 90 | 
2 | Nc1ccc(-c2cnc(Oc3ccc(F)cc3)nc2)cn1 [Example 44] | > 90 | 
3 | Fc1ccc(Oc2ncc(-c3ccc4ncnn4c3)cn2)cc1 [Example 146] | > 90 | 
4 | Cc1cnc2ccc(-c3cnc(Oc4cccc(F)c4)nc3)cn12 [Example 192] | > 90 | 
5 | COc1nc(Oc2ccccc2)ncc1-c1ccc2c(c1)CC(=O)N2 [Example 274] | > 90 | 
6 | O=C1CCN(c2ccc(Oc3cccc(F)n3)cc2)C(=O)N1 [Example 321, 1-[4-(6-Fluoropyridin-2-Yloxy)Phenyl]Dihydropyrimidine-2,4 (1H,3H)-Dione] | 50 to 70 | 
7 | Fc1cccc(Oc2ncc(-c3ccc4nncn4n3)cn2)c1 [Example 291] | > 90 | 
8 | FC(F)(F)c1cccc(-c2cnc(Oc3ccccc3)nc2)n1 [Example 301] | > 90 | 
9 | COc1nc(Oc2ccccc2)ncc1-c1ccc2nncn2c1 [Example 159] | > 90 | 
10 | Fc1ccc(Oc2ncc(-c3ccc4cnnn4c3)cn2)cc1 [Example 176] | > 90 | 
11 | c1ccc(Oc2ncc(-c3ccc4ccncc4c3)cn2)cc1 [Example 252] | > 90 | 
12 | Cn1ccc2c(-c3cnc(Oc4ccccc4)nc3)cccc21 [Example 263] | > 90 | 
13 | Fc1cccc(Oc2ncc(-c3cn4ccnc4cn3)cn2)c1 [Example 150] | > 90 | 
14 | Fc1cccc(Oc2ncc(-c3ccn4cnnc4c3)cn2)c1 [Example 212] | > 90 | 
15 | Cc1cnc2ccc(-c3cnc(Oc4ccc(F)cc4)nc3)cn12 [Example 193] | > 90 | 
16 | Fc1ccc(Oc2ncc(-c3ccc4nccn4c3)cn2)c(F)c1 [Example 165] |  | > 90
17 | O=C1CCN(c2ccc(Cc3ccc(F)cc3)cc2)C(=O)N1 [Example 338] | 50 to 70 | 
18 | COc1ccc(-c2cnc(Oc3cccc(C)c3)nc2)cn1 [Example 29] | > 90 | 

Row | Structure (SMILES) | inhibition in vivo at 30 mg/kg [%] | inhibition in vivo at 5 mg/kg (dose 5 mg/kg) [%]
19 | COc1ccc(-c2cnc(Oc3cccc(C(F)(F)F)c3)nc2)cn1 [Example 16] | > 90 | 
20 | Fc1ccccc1Oc1ncc(-c2ccn3ccnc3c2)cn1 [Example 130] | > 90 | 
21 | COc1ccc(-c2cnc(Oc3ccc(F)cc3F)nc2)nn1 [Example 65] | > 90 | 
22 | O=c1cc(-c2cnc(Oc3ccccc3)nc2)cn[nH]1 [Example 116] | > 90 | 
23 | COCc1cn2cc(-c3cnc(Oc4ccccc4F)nc3)ccc2n1 [Example 209] | > 90 | 
24 | Nc1cn2cc(-c3cnc(Oc4ccccc4)nc3)ccc2n1 [Example 140] | > 90 | 
25 | Cc1ccc(-c2cnc(Oc3ccccc3F)nc2)nn1 [Example 25] | > 90 | 
26 | Nc1cc(-c2cnc(Oc3ccc(F)cc3)nc2)ccn1 [Example 79] | > 90 | 
27 | O=C1CCN(c2ccc(Oc3ccc(S(F)(F)(F)(F)F)cc3)cc2)C(=O)N1 [Example 317] | 50 to 70 | 
28 | Cc1cc(Oc2cccc(C(F)(F)F)c2)ccc1N1CCC(=O)NC1=O [Example 335] | 70 to 90 | 
29 | O=C1CCOCCN1c1cnc(Oc2ccccc2)nc1 [Example 232] | > 90 | 
30 | Fc1cc(F)cc(Oc2ncc(-c3cccnc3)cn2)c1 [Example 18] | > 90 | 
31 | Fc1cccc(Oc2ncc(-c3ccc4cncn4c3)cn2)c1 [Example 157] | > 90 | 
32 | c1ccc(Oc2ncc(-c3ccc4cccnc4c3)cn2)cc1 [Example 244] | > 90 | 
33 | Nc1ccc(-c2cnc(Oc3c(F)cccc3F)nc2)nn1 [Example 39] | > 90 | 
34 | O=C1CCN(c2ccc(OC(F)(F)F)cc2)C(=O)N1 [Example 319] | 50 to 70 | 
35 | Cc1cccc(Oc2ncc(-c3cccnc3)cn2)c1 [Example 35] | > 90 | 
36 | O=C1Nc2ccc(-c3cnc(Oc4ccccc4)nc3)cc2C1=O [Example 271] | > 90 | 
